In one experiment the test system is 843126-344-R-J1-PDC complex spheroid viability. The experiment can be described thus: Anticancer human tumor 843126-344-R-J1-PDC patient-derived melanoma cell line growth inhibition [POLQ]. As to conditions: second compound 0.316 µM; first compound 1 µM; active compounds read low. An outline of the steps: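 Three-cell-type spheroids modelling solid tumor plus stroma served as the readout system; POL inhibitors were tested individually and in combination, concentration ranges set by clinical Cmax where known.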
One may read the viability, T/C as the result in the treated group divided by that in the control group, in per cent. For `C=CC(=O)N1CCN(c2nc(=O)n(-c3c(C)ccnc3C(C)C)c3nc(-c4c(O)cccc4F)c(F)cc23)C(C)C1` (configuration not stated) + Cc1cccc(N(C)C(=O)C2C(O)CCN2c2nc(C)cc(C(F)(F)F)c2C#N)c1, the viability, T/C is 107%.

For the compound `CCc1cc2c(N3CCc4c(cc(Cn5ccnc5)cc4-c4cn(C)nc4C(F)(F)F)C3=O)cc(C)nc2c(OC)n1` + Cc1cccc(N(C)C(=O)C2C(O)CCN2c2nc(C)cc(C(F)(F)F)c2C#N)c1, the viability, T/C was 72.3%.

Turning to `CCc1cc2c(N3CCc4c(cc(Cn5ccnc5)cc4-c4cn(C)nc4C(F)(F)F)C3=O)ccnc2c(OC)n1` + Cc1cccc(N(C)C(=O)C2C(O)CCN2c2nc(C)cc(C(F)(F)F)c2C#N)c1, the viability, T/C was 78.5%.

For the compound `COc1cc2cc(C(=O)CCC(=O)O)sc2cc1OC` + Cc1cccc(N(C)C(=O)C2C(O)CCN2c2nc(C)cc(C(F)(F)F)c2C#N)c1, the viability, T/C is 96.6%.

The same experiment, now with this note: second compound 0.316 µM; first compound 3.16 µM; active compounds read low.
For the compound `C=CC(=O)N1CCN(c2nc(=O)n(-c3c(C)ccnc3C(C)C)c3nc(-c4c(O)cccc4F)c(F)cc23)C(C)C1` (configuration not stated) + Cc1cccc(N(C)C(=O)C2C(O)CCN2c2nc(C)cc(C(F)(F)F)c2C#N)c1, the viability, T/C was 84%.

With `CCc1cc2c(N3CCc4c(cc(Cn5ccnc5)cc4-c4cn(C)nc4C(F)(F)F)C3=O)cc(C)nc2c(OC)n1` + Cc1cccc(N(C)C(=O)C2C(O)CCN2c2nc(C)cc(C(F)(F)F)c2C#N)c1, the viability, T/C was 69.8%.

Consider `CCc1cc2c(N3CCc4c(cc(Cn5ccnc5)cc4-c4cn(C)nc4C(F)(F)F)C3=O)ccnc2c(OC)n1` + Cc1cccc(N(C)C(=O)C2C(O)CCN2c2nc(C)cc(C(F)(F)F)c2C#N)c1, for which the viability, T/C is 69%.

Turning to `COc1cc2cc(C(=O)CCC(=O)O)sc2cc1OC` + Cc1cccc(N(C)C(=O)C2C(O)CCN2c2nc(C)cc(C(F)(F)F)c2C#N)c1, the viability, T/C was 88.8%.

The experiment is the same for the next values; noted with them: second compound 0.316 µM; first compound 10 µM; active compounds read low.
As for `C=CC(=O)N1CCN(c2nc(=O)n(-c3c(C)ccnc3C(C)C)c3nc(-c4c(O)cccc4F)c(F)cc23)C(C)C1` (configuration not stated) + Cc1cccc(N(C)C(=O)C2C(O)CCN2c2nc(C)cc(C(F)(F)F)c2C#N)c1, the viability, T/C is 69.9%.

Turning to `CCc1cc2c(N3CCc4c(cc(Cn5ccnc5)cc4-c4cn(C)nc4C(F)(F)F)C3=O)cc(C)nc2c(OC)n1` + Cc1cccc(N(C)C(=O)C2C(O)CCN2c2nc(C)cc(C(F)(F)F)c2C#N)c1, the viability, T/C is 62.3%.

`CCc1cc2c(N3CCc4c(cc(Cn5ccnc5)cc4-c4cn(C)nc4C(F)(F)F)C3=O)ccnc2c(OC)n1` + Cc1cccc(N(C)C(=O)C2C(O)CCN2c2nc(C)cc(C(F)(F)F)c2C#N)c1: the viability, T/C is 61.2%.

As to `COc1cc2cc(C(=O)CCC(=O)O)sc2cc1OC` + Cc1cccc(N(C)C(=O)C2C(O)CCN2c2nc(C)cc(C(F)(F)F)c2C#N)c1, the viability, T/C was 89%.

Still in this experiment, the particulars now being: second compound 1 µM; first compound 0.0316 µM; active compounds read low.
As for `C=CC(=O)N1CCN(c2nc(=O)n(-c3c(C)ccnc3C(C)C)c3nc(-c4c(O)cccc4F)c(F)cc23)C(C)C1` (configuration not stated) + Cc1cccc(N(C)C(=O)C2C(O)CCN2c2nc(C)cc(C(F)(F)F)c2C#N)c1, the viability, T/C was 89.7%.

For the compound `CCc1cc2c(N3CCc4c(cc(Cn5ccnc5)cc4-c4cn(C)nc4C(F)(F)F)C3=O)cc(C)nc2c(OC)n1` + Cc1cccc(N(C)C(=O)C2C(O)CCN2c2nc(C)cc(C(F)(F)F)c2C#N)c1, the viability, T/C was 85.4%.

With `CCc1cc2c(N3CCc4c(cc(Cn5ccnc5)cc4-c4cn(C)nc4C(F)(F)F)C3=O)ccnc2c(OC)n1` + Cc1cccc(N(C)C(=O)C2C(O)CCN2c2nc(C)cc(C(F)(F)F)c2C#N)c1, the viability, T/C is 101%.

For the compound `COc1cc2cc(C(=O)CCC(=O)O)sc2cc1OC` + Cc1cccc(N(C)C(=O)C2C(O)CCN2c2nc(C)cc(C(F)(F)F)c2C#N)c1, the viability, T/C was 81.7%.

Still in this experiment, the particulars now being: second compound 1 µM; first compound 0.1 µM; active compounds read low.
For `C=CC(=O)N1CCN(c2nc(=O)n(-c3c(C)ccnc3C(C)C)c3nc(-c4c(O)cccc4F)c(F)cc23)C(C)C1` (configuration not stated) + Cc1cccc(N(C)C(=O)C2C(O)CCN2c2nc(C)cc(C(F)(F)F)c2C#N)c1, the viability, T/C was 84.7%.

`CCc1cc2c(N3CCc4c(cc(Cn5ccnc5)cc4-c4cn(C)nc4C(F)(F)F)C3=O)cc(C)nc2c(OC)n1` + Cc1cccc(N(C)C(=O)C2C(O)CCN2c2nc(C)cc(C(F)(F)F)c2C#N)c1: the viability, T/C was 89.5%.

For the compound `CCc1cc2c(N3CCc4c(cc(Cn5ccnc5)cc4-c4cn(C)nc4C(F)(F)F)C3=O)ccnc2c(OC)n1` + Cc1cccc(N(C)C(=O)C2C(O)CCN2c2nc(C)cc(C(F)(F)F)c2C#N)c1, the viability, T/C is 77.3%.

In the case of `COc1cc2cc(C(=O)CCC(=O)O)sc2cc1OC` + Cc1cccc(N(C)C(=O)C2C(O)CCN2c2nc(C)cc(C(F)(F)F)c2C#N)c1, the viability, T/C was 84.2%.

The same experiment, now with this note: second compound 1 µM; first compound 0.316 µM; active compounds read low.
In the case of `C=CC(=O)N1CCN(c2nc(=O)n(-c3c(C)ccnc3C(C)C)c3nc(-c4c(O)cccc4F)c(F)cc23)C(C)C1` (configuration not stated) + Cc1cccc(N(C)C(=O)C2C(O)CCN2c2nc(C)cc(C(F)(F)F)c2C#N)c1, the viability, T/C is 84.2%.

Regarding `CCc1cc2c(N3CCc4c(cc(Cn5ccnc5)cc4-c4cn(C)nc4C(F)(F)F)C3=O)cc(C)nc2c(OC)n1` + Cc1cccc(N(C)C(=O)C2C(O)CCN2c2nc(C)cc(C(F)(F)F)c2C#N)c1, the viability, T/C is 77.3%.

In the case of `CCc1cc2c(N3CCc4c(cc(Cn5ccnc5)cc4-c4cn(C)nc4C(F)(F)F)C3=O)ccnc2c(OC)n1` + Cc1cccc(N(C)C(=O)C2C(O)CCN2c2nc(C)cc(C(F)(F)F)c2C#N)c1, the viability, T/C is 86.3%.

For the compound `COc1cc2cc(C(=O)CCC(=O)O)sc2cc1OC` + Cc1cccc(N(C)C(=O)C2C(O)CCN2c2nc(C)cc(C(F)(F)F)c2C#N)c1, the viability, T/C is 88.1%.

The experiment is the same for the next values; noted with them: second compound 1 µM; first compound 1 µM; active compounds read low.
With `C=CC(=O)N1CCN(c2nc(=O)n(-c3c(C)ccnc3C(C)C)c3nc(-c4c(O)cccc4F)c(F)cc23)C(C)C1` (configuration not stated) + Cc1cccc(N(C)C(=O)C2C(O)CCN2c2nc(C)cc(C(F)(F)F)c2C#N)c1, the viability, T/C is 90.2%.

As to `CCc1cc2c(N3CCc4c(cc(Cn5ccnc5)cc4-c4cn(C)nc4C(F)(F)F)C3=O)cc(C)nc2c(OC)n1` + Cc1cccc(N(C)C(=O)C2C(O)CCN2c2nc(C)cc(C(F)(F)F)c2C#N)c1, the viability, T/C was 70%.

Consider `CCc1cc2c(N3CCc4c(cc(Cn5ccnc5)cc4-c4cn(C)nc4C(F)(F)F)C3=O)ccnc2c(OC)n1` + Cc1cccc(N(C)C(=O)C2C(O)CCN2c2nc(C)cc(C(F)(F)F)c2C#N)c1, for which the viability, T/C was 73.5%.

For the compound `COc1cc2cc(C(=O)CCC(=O)O)sc2cc1OC` + Cc1cccc(N(C)C(=O)C2C(O)CCN2c2nc(C)cc(C(F)(F)F)c2C#N)c1, the viability, T/C was 93.5%.

The experiment is the same for the next values; noted with them: second compound 1 µM; first compound 3.16 µM; active compounds read low.
With `C=CC(=O)N1CCN(c2nc(=O)n(-c3c(C)ccnc3C(C)C)c3nc(-c4c(O)cccc4F)c(F)cc23)C(C)C1` (configuration not stated) + Cc1cccc(N(C)C(=O)C2C(O)CCN2c2nc(C)cc(C(F)(F)F)c2C#N)c1, the viability, T/C was 106%.

In the case of `CCc1cc2c(N3CCc4c(cc(Cn5ccnc5)cc4-c4cn(C)nc4C(F)(F)F)C3=O)cc(C)nc2c(OC)n1` + Cc1cccc(N(C)C(=O)C2C(O)CCN2c2nc(C)cc(C(F)(F)F)c2C#N)c1, the viability, T/C is 75.5%.

With `CCc1cc2c(N3CCc4c(cc(Cn5ccnc5)cc4-c4cn(C)nc4C(F)(F)F)C3=O)ccnc2c(OC)n1` + Cc1cccc(N(C)C(=O)C2C(O)CCN2c2nc(C)cc(C(F)(F)F)c2C#N)c1, the viability, T/C was 68%.

Consider `COc1cc2cc(C(=O)CCC(=O)O)sc2cc1OC` + Cc1cccc(N(C)C(=O)C2C(O)CCN2c2nc(C)cc(C(F)(F)F)c2C#N)c1, for which the viability, T/C was 91.8%.

The same experiment, now with this note: second compound 1 µM; first compound 10 µM; active compounds read low.
Turning to `C=CC(=O)N1CCN(c2nc(=O)n(-c3c(C)ccnc3C(C)C)c3nc(-c4c(O)cccc4F)c(F)cc23)C(C)C1` (configuration not stated) + Cc1cccc(N(C)C(=O)C2C(O)CCN2c2nc(C)cc(C(F)(F)F)c2C#N)c1, the viability, T/C is 71.3%.

In the case of `CCc1cc2c(N3CCc4c(cc(Cn5ccnc5)cc4-c4cn(C)nc4C(F)(F)F)C3=O)cc(C)nc2c(OC)n1` + Cc1cccc(N(C)C(=O)C2C(O)CCN2c2nc(C)cc(C(F)(F)F)c2C#N)c1, the viability, T/C was 63.8%.

For `CCc1cc2c(N3CCc4c(cc(Cn5ccnc5)cc4-c4cn(C)nc4C(F)(F)F)C3=O)ccnc2c(OC)n1` + Cc1cccc(N(C)C(=O)C2C(O)CCN2c2nc(C)cc(C(F)(F)F)c2C#N)c1, the viability, T/C was 55.3%.

For the compound `COc1cc2cc(C(=O)CCC(=O)O)sc2cc1OC` + Cc1cccc(N(C)C(=O)C2C(O)CCN2c2nc(C)cc(C(F)(F)F)c2C#N)c1, the viability, T/C is 86.4%.

The same experiment, now with this note: second compound 3.16 µM; first compound 0.0316 µM; active compounds read low.
As to `C=CC(=O)N1CCN(c2nc(=O)n(-c3c(C)ccnc3C(C)C)c3nc(-c4c(O)cccc4F)c(F)cc23)C(C)C1` (configuration not stated) + Cc1cccc(N(C)C(=O)C2C(O)CCN2c2nc(C)cc(C(F)(F)F)c2C#N)c1, the viability, T/C is 91.2%.

Regarding `CCc1cc2c(N3CCc4c(cc(Cn5ccnc5)cc4-c4cn(C)nc4C(F)(F)F)C3=O)cc(C)nc2c(OC)n1` + Cc1cccc(N(C)C(=O)C2C(O)CCN2c2nc(C)cc(C(F)(F)F)c2C#N)c1, the viability, T/C is 90.8%.

Turning to `CCc1cc2c(N3CCc4c(cc(Cn5ccnc5)cc4-c4cn(C)nc4C(F)(F)F)C3=O)ccnc2c(OC)n1` + Cc1cccc(N(C)C(=O)C2C(O)CCN2c2nc(C)cc(C(F)(F)F)c2C#N)c1, the viability, T/C was 100%.

Turning to `COc1cc2cc(C(=O)CCC(=O)O)sc2cc1OC` + Cc1cccc(N(C)C(=O)C2C(O)CCN2c2nc(C)cc(C(F)(F)F)c2C#N)c1, the viability, T/C was 89.9%.

Still in this experiment, the particulars now being: second compound 3.16 µM; first compound 0.1 µM; active compounds read low.
As to `C=CC(=O)N1CCN(c2nc(=O)n(-c3c(C)ccnc3C(C)C)c3nc(-c4c(O)cccc4F)c(F)cc23)C(C)C1` (configuration not stated) + Cc1cccc(N(C)C(=O)C2C(O)CCN2c2nc(C)cc(C(F)(F)F)c2C#N)c1, the viability, T/C was 74.5%.

On to `CCc1cc2c(N3CCc4c(cc(Cn5ccnc5)cc4-c4cn(C)nc4C(F)(F)F)C3=O)cc(C)nc2c(OC)n1` + Cc1cccc(N(C)C(=O)C2C(O)CCN2c2nc(C)cc(C(F)(F)F)c2C#N)c1, for which the viability, T/C was 86%.
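Also: spheroids exposed to drugs for seven days before readout.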
